Data: patent publication US20250171437A1 (Agios Pharmaceuticals,Inc., priority 2022, published 2025)

Molecular target: T1, human PAH with the R408W mutation (A375 R408W cells) (Homo sapiens, UniProt P00439, R408W)
T1 construct: expressed in transfected cells
T1 sequence (P00439 1-452 R408W): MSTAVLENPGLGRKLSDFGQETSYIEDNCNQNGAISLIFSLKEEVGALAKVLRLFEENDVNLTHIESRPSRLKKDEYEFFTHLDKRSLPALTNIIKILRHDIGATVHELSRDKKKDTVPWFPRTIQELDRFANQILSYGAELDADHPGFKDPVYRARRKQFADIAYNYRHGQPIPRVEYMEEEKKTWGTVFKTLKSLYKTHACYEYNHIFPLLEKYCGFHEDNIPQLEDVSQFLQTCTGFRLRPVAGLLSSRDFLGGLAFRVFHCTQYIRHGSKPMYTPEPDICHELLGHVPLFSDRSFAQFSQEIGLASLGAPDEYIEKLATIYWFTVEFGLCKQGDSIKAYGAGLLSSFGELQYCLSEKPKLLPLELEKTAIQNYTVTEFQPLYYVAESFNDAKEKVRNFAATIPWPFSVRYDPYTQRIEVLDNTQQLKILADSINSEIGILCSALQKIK
Assay: Cell Based Phenylalanine Flux Assay
Settings: 24 hrs with compound, then 20 μM sepiapterin and 800 μM 13C9,15N-Phenylalanine for 4 hours, 13C-Tyrosine by LC-MS, average where tested multiple times
Method in brief: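 Puromycin-selected A375 line, lentiviral hPAH R408W; cmpd 24 h, 37 °C, 5% CO2, 0.5% DMSO; then 20 μM sepiapterin + 800 μM 13C9,15N-Phe, 4 h; media extracted in 80% MeCN; 13C-Tyr by LC-MS; AC50 from 10-pt curves.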

[1] = A375 cells expressing R408W PAH

SMILES | AC50 [1] | AC50 (A375 R408W cells)
CC(C)(O)c1nc(C(=O)N2CCc3[nH]cnc3C2c2nc3ccc(F)cc3o2)no1 (centres unmarked) | ≥ 5 µM | –
O=C1CN(Cc2ccc3c(C(=O)N4CCc5[nH]cnc5C4c4nc5cc(F)ccc5o4)cnn3c2)CCN1 (centres unmarked) | ≥ 5 µM | –
CC(C)(O)c1cc(C(=O)N2CCc3[nH]cnc3C2c2nc3ccc(F)cc3o2)on1 (single isomer, unassigned) [4R enantiomer of 2-{5-[4-(6-fluoro-1,3-benzoxazol-2-yl)-1H,4] | ≥ 5 µM | –
O=C(c1oc(-c2cnccn2)nc1C(F)F)N1CCc2[nH]cnc2[C@H]1c1nc2cc(F)ccc2o1 [Example 527, (S)-(4-(difluoromethyl)-2-(pyrazin-2-yl)oxazol-5-yl)(4-(5-fluorobenzo[d]oxazol-2-yl)-6,7-dihydro-1H-imidazo[4,5-c]pyridin-5(4H)-yl)methanone] | – | ≤ 0.5 µM
CC(C)(O)c1ncc(C(=O)N2CCc3[nH]cnc3C2c2nc3c(F)cc(F)cc3o2)o1 (centres unmarked) | 1 to 5 µM | –
O=C(c1oc(-c2ccc(C(F)(F)F)cn2)nc1C(F)F)N1CCc2[nH]cnc2[C@H]1c1nc2cccc(F)c2o1 [Example 633, (S)-(4-(difluoromethyl)-2-(5-(trifluoromethyl)pyridin-2-yl)oxazol-5-yl)(4-(7-fluorobenzo[d]oxazol-2-yl)-6,7-dihydro-1H-imidazo[4,5-c]pyridin-5(4H)-yl)methanone] | – | ≤ 0.5 µM
O=C(c1cnn2cc(CN3CCC(F)(F)C3)ccc12)N1CCc2[nH]cnc2C1c1nc2cc(F)ccc2o1 (centres unmarked) | ≥ 5 µM | –
Cc1ccc2oc(C3c4nc[nH]c4CCN3C(=O)c3cnn4cc(CCN(C)C)ccc34)nc2c1 (centres unmarked) | ≥ 5 µM | –
CC(C)(O)c1cc(C(=O)N2CCc3[nH]cnc3C2c2nc3ccc(F)cc3o2)no1 (centres unmarked) | ≥ 5 µM | –
CC(C)(C)c1ncc(C(=O)N2CCc3[nH]cnc3[C@H]2c2nc3cc(F)ccc3o2)s1 [Example 17, (S)-(2-(tert-butyl)thiazol-5-yl)(4-(5-fluorobenzo[d]oxazol-2-yl)-6,7-dihydro-1H-imidazo[4,5-c]pyridin-5(4H)-yl)methanone] | – | ≤ 0.5 µM
O=C(c1ocnc1C(F)(F)F)N1CCc2[nH]cnc2[C@@H]1c1nc2c(F)ccc(F)c2o1 [Example 796, (R)-(4-(4,7-difluorobenzo[d]oxazol-2-yl)-6,7-dihydro-1H-imidazo[4,5-c]pyridin-5(4H)-yl)(4-(trifluoromethyl)oxazol-5-yl)methanone] | – | 0.5 to 1 µM
O=C(c1cnn2cc(N3CCC(O)CC3)ccc12)N1CCc2[nH]cnc2[C@@H]1c1nc2cccc(F)c2o1 [Example 372, (R)-(4-(7-fluorobenzo[d]oxazol-2-yl)-6,7-dihydro-1H-imidazo[4,5-c]pyridin-5(4H)-yl)(6-(4-hydroxypiperidin-1-yl)pyrazolo[1,5-a]pyridin-3-yl)methanone] | – | 1 to 5 µM
COc1ccc(-c2nc(C(F)F)c(C(=O)N3CCc4[nH]cnc4[C@H]3c3nc4cc(F)ccc4o3)o2)nc1 [Example 445, (S)-(4-(difluoromethyl)-2-(5-methoxypyridin-2-yl)oxazol-5-yl)(4-(5-fluorobenzo[d]oxazol-2-yl)-6,7-dihydro-1H-imidazo[4,5-c]pyridin-5(4H)-yl)methanone] | – | ≤ 0.5 µM
CC1CN(C(=O)c2oc(C(C)(C)O)nc2C(F)F)C(c2nc3cc(F)ccc3o2)c2nc[nH]c21 (centres unmarked) | ≥ 5 µM | –
O=C(c1nnc(-c2cnccn2)o1)N1CCc2[nH]cnc2[C@@H]1c1nc2cc(F)ccc2o1 [Example 627, (R)-(4-(5-fluorobenzo[d]oxazol-2-yl)-6,7-dihydro-1H-imidazo[4,5-c]pyridin-5(4H)-yl)(5-(pyrazin-2-yl)-1,3,4-oxadiazol-2-yl)methanone] | – | 1 to 5 µM
CC1CN(C(=O)c2ocnc2C(F)F)[C@H](c2nc3cccc(F)c3o2)c2nc[nH]c21 (single isomer, unassigned) [Example 804] | – | ≤ 0.5 µM
O=C(c1ocnc1C(F)F)N1CCc2[nH]cnc2[C@H]1c1nc2cccc(OC(F)(F)F)c2o1 [Example 532, (S)-(4-(difluoromethyl)oxazol-5-yl)(4-(7-(trifluoromethoxy)benzo[d]oxazol-2-yl)-6,7-dihydro-1H-imidazo[4,5-c]pyridin-5(4H)-yl)methanone] | – | ≤ 0.5 µM
O=C(c1oc(-c2cncnc2)nc1C(F)F)N1CCc2[nH]cnc2[C@H]1c1nc2cc(F)ccc2o1 [Example 406, (S)-(4-(difluoromethyl)-2-(pyrimidin-5-yl)oxazol-5-yl)(4-(5-fluorobenzo[d]oxazol-2-yl)-6,7-dihydro-1H-imidazo[4,5-c]pyridin-5(4H)-yl)methanone] | – | ≤ 0.5 µM

SMILES | AC50 [1] | AC50 (A375 R408W cells)
O=C(c1ccnn1C(F)F)N1CCc2[nH]cnc2[C@H]1c1nc2c(F)cccc2o1 [Example 201, (S)-(1-(difluoromethyl)-1H-pyrazol-5-yl)(4-(4-fluorobenzo[d]oxazol-2-yl)-6,7-dihydro-1H-imidazo[4,5-c]pyridin-5(4H)-yl)methanone] | – | 0.5 to 1 µM
Cn1nc(C(F)F)nc1C(=O)N1CCc2[nH]cnc2C1c1nc2c(F)cccc2o1 (centres unmarked) | 1 to 5 µM | –
Cn1cncc1-c1nc(C(F)F)c(C(=O)N2CCc3[nH]cnc3[C@H]2c2nc3ccccc3o2)o1 [Example 764, (S)-(4-(benzo[d]oxazol-2-yl)-6,7-dihydro-1H-imidazo[4,5-c]pyridin-5(4H)-yl)(4-(difluoromethyl)-2-(1-methyl-1H-imidazol-5-yl)oxazol-5-yl)methanone] | – | ≤ 0.5 µM
O=C(c1cnn2cc(CN3CC(F)C3)ccc12)N1CCc2[nH]cnc2C1c1nc2cc(F)ccc2o1 (centres unmarked) | 1 to 5 µM | –
O=C(c1nnc(-c2ccccn2)o1)N1CCc2[nH]cnc2[C@H]1c1nc2cccc(C(F)(F)F)c2o1 [Example 838, (S)-(5-(pyridin-2-yl)-1,3,4-oxadiazol-2-yl)(4-(7-(trifluoromethyl)benzo[d]oxazol-2-yl)-6,7-dihydro-1H-imidazo[4,5-c]pyridin-5(4H)-yl)methanone] | – | ≤ 0.5 µM
Nc1cc2c(C(=O)N3CCc4[nH]cnc4C3c3nc4cc(F)ccc4o3)cnn2cc1F (centres unmarked) | ≥ 5 µM | –
Cc1nc(C(=O)N2CCc3[nH]cnc3[C@H]2c2nc3cccc(C)c3o2)n(C)n1 [Example 907, (S)-(1,3-dimethyl-1H-1,2,4-triazol-5-yl)(4-(7-methylbenzo[d]oxazol-2-yl)-6,7-dihydro-1H-imidazo[4,5-c]pyridin-5(4H)-yl)methanone] | – | 1 to 5 µM
CC(C)(O)c1nc(CF)c(C(=O)N2CCc3[nH]cnc3[C@@H]2c2nc3cc(F)ccc3o2)o1 [Example 212, (R)-(4-(5-fluorobenzo[d]oxazol-2-yl)-6,7-dihydro-1H-imidazo[4,5-c]pyridin-5(4H)-yl)(4-(fluoromethyl)-2-(2-hydroxypropan-2-yl)oxazol-5-yl)methanone] | – | 1 to 5 µM
COc1ccc2oc([C@H]3c4nc[nH]c4CCN3C(=O)c3oc(C(C)(C)O)nc3C(F)F)nc2c1 [Example 340, (R)-(4-(difluoromethyl)-2-(2-hydroxypropan-2-yl)oxazol-5-yl)(4-(5-methoxybenzo[d]oxazol-2-yl)-6,7-dihydro-1H-imidazo[4,5-c]pyridin-5(4H)-yl)methanone] | – | 1 to 5 µM
O=C(c1oc(-c2ccccn2)nc1C(F)(F)F)N1CCc2[nH]cnc2[C@@H]1c1nc2cc(F)ccc2o1 [Example 50, (R)-(4-(5-fluorobenzo[d]oxazol-2-yl)-6,7-dihydro-1H-imidazo[4,5-c]pyridin-5(4H)-yl)(2-(pyridin-2-yl)-4-(trifluoromethyl)oxazol-5-yl)methanone] | – | ≤ 0.5 µM
Cn1cc(-c2nnc(C(=O)N3CCc4[nH]cnc4[C@@H]3c3nc4c(F)c(F)ccc4o3)o2)cn1 [Example 646, (R)-(4-(4,5-difluorobenzo[d]oxazol-2-yl)-6,7-dihydro-1H-imidazo[4,5-c]pyridin-5(4H)-yl)(5-(1-methyl-1H-pyrazol-4-yl)-1,3,4-oxadiazol-2-yl)methanone] | – | 1 to 5 µM
Cn1nc(C(F)F)nc1C(=O)N1CCc2[nH]cnc2[C@H]1c1nc2cc(F)cc(F)c2o1 [Example 577, (S)-(4-(5,7-difluorobenzo[d]oxazol-2-yl)-6,7-dihydro-1H-imidazo[4,5-c]pyridin-5(4H)-yl)(3-(difluoromethyl)-1-methyl-1H-1,2,4-triazol-5-yl)methanone] | – | 0.5 to 1 µM
O=C(c1ocnc1CC(F)F)N1CCc2[nH]cnc2[C@H]1c1nc2ccccc2o1 [Example 873, (S)-(4-(benzo[d]oxazol-2-yl)-6,7-dihydro-1H-imidazo[4,5-c]pyridin-5(4H)-yl)(4-(2,2-difluoroethyl)oxazol-5-yl)methanone] | – | ≤ 0.5 µM
Cc1ncoc1C(=O)N1Cc2[nH]cnc2[C@H]1c1nc2ccccc2o1 [Example 941, (S)-(4-(benzo[d]oxazol-2-yl)-4,6-dihydropyrrolo[3,4-d]imidazol-5(1H)-yl)(4-methyloxazol-5-yl)methanone] | – | 1 to 5 µM
O=C(c1cnn2cc(N3CCN(CC(F)(F)F)CC3)ccc12)N1CCc2[nH]cnc2C1c1nc2cc(F)ccc2o1 (centres unmarked) | 1 to 5 µM | –
O=C(c1ocnc1C(F)F)N1CCc2[nH]cnc2[C@H]1c1nc2c(Cl)cccc2o1 [Example 437, [(4S)-4-(4-chloro-1,3-benzoxazol-2-yl)-1,4,6,7-tetrahydroimidazo[4,5-c]pyridin-5-yl]-[4-(difluoromethyl)oxazol-5-yl]methanone] | – | ≤ 0.5 µM
O=C(c1nnc(-c2cc[nH]n2)o1)N1CCc2[nH]cnc2C1c1nc2cc(F)ccc2o1 (centres unmarked) | 1 to 5 µM | –
